Source: PubChem BioAssay AID1845217 (Molecular Pharmacology Branch, DTP, NCI, 2023)

System: VA-ES-BJ tumor spheroid viability
Assay: Anticancer human tumor VA-ES-BJ cell line growth inhibition;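 also: spheroids exposed to compounds for seven days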;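 as to viability, T/C: percent of DMSO vehicle control viability so 100% = untreated growth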
Settings: spheroids with HUVEC and MSC; for IC50: curve of first compound; for viability, T/C: stronger effect = lower value
Source text: Multicellular complex tumor spheroid response to DNA repair inhibitors in combination with DNA-damaging drugs
This study explores the anticancer activities of DNA-damaging drugs and inhibitors of DNA damage repair, both as single agents and in combinations. Complex tumor spheroids comprised of malignant cells, endothelial cells and mesenchymal stem cells served as an in vitro model for human solid tumors. This model system incorporates physiologically relevant features and patient-derived or established malignant cell lines with clinically relevant genetic alterations from many tumor types. Twenty-six patient-derived or established malignant cell lines were evaluated representing sarcoma, melanoma, small cell lung cancer (SCLC), non-small cell lung cancer (NSCLC), as well as bladder, ovarian and pancreatic cancers. The concentration ranges selected for each drug and investigational agent were based upon clinically achievable concentrations if the clinical Cmax of the agent was known.
Compounds. The drugs and compounds olaparib (NSC753686), talazoparib (NSC767125), berzosertib (NSC777718), elimusertib (NSC800525), nedisertib (NSC802822), VX-984 (NSC792969), AZD-1390 (NSC803789), temozolomide (NSC362856), topotecan (NSC609699), trabectedin (NSC813783), staurosporine (NSC755774), and gemcitabine (NSC613327) were obtained from the National Cancer Institute (NCI) Developmental Therapeutics Program Chemical Repository. The FDA-approved anticancer drug set is available from the Developmental Therapeutics Program at https://dtp.cancer.gov/organization/dscb/obtaining/available_plates.htm. […] The stock solutions were prepared in dimethyl sulfoxide (DMSO, Sigma-Aldrich, St. Louis, MO, cat. D2650) at 400-fold the tested concentration and stored at -70 degrees C. Prior to their use, the stock solutions were diluted in fresh medium and the final DMSO concentration in the assay was 0.25% (v/v). All drugs and investigational agents were tested over a range starting from a high concentration at or near the clinical Cmax and decreasing in half-log increments. If the clinical Cmax for an agent had not been determined, the highest concentration tested was 10 microM.
Cell Lines. The patient-derived cancer cell (PDC) lines: 156681-154-R-J1-PDC, 283228-195-R-J1-PDC, 287954-098-R-J1-PDC, 292921-168-R-J2-PDC, 349418-098-R-PDC, 425362-245-T-J1-PDC, 556581-035-R-J1-PDC, and BL0293-F563-PDC were received from the NCI Patient-Derived Models Repository (PDMR, https://pdmr.cancer.gov). The established cell lines HS-SY-2 (RRID:CVCL_8719), MPNST, and SYO-1 (RRID:CVCL_7146) were obtained from the Sloan Kettering Institute. The alveolar soft parts sarcoma cell line ASPS-1 (RRID:CVCL_S738) was established at the NCI and grown from internal seed stocks. The following established cell lines were purchased from the American Type Culture Collection (ATCC, Manassas, VA): G-401 (ATCC, cat. CRL-1441, RRID:CVCL_0270), SW982 (ATCC, cat. HTB-93, RRID:CVCL_1734), VA-ES-BJ (ATCC, cat. CRL-2138, RRID:CVCL_1785), NCI-H719 (ATCC, cat. CRL-5837, RRID:CVCL_1582), NCI-H196 (ATCC, cat. CRL-5823, RRID:CVCL_1509), NCI-H841 (ATCC, cat. CRL-5845, RRID:CVCL_1595), NCI-H1618 (ATCC, cat. CRL-5879, RRID:CVCL_1480), NCI-H1876 (ATCC, cat. CRL-5902, RRID:CVCL_1503), DMS 114 (ATCC, cat. CRL-2066; RRID:CVCL_1174), NCI-H211 (ATCC, cat. CRL-5824; RRID:CVCL_1529), and SW 1271 (ATCC, cat. CRL-2177, RRID:CVCL_1716). The small cell lung cancer cell line COR-L88 was purchased from Sigma-Aldrich (cat. 92031917-1VL, RRID:CVCL_1141). The non-small cell lung cancer cell lines NCI-H226 (RRID:CVCL_1544) and NCI-H322M (RRID:CVCL_1557) were established at the NCI and grown from internal seed stocks. Pooled donor human umbilical vein endothelial cells (HUVEC, Lonza, cat. CC-2519) and human mesenchymal stem cells (hMSC, Lonza, cat. PT-2501) were purchased from Lonza (Walkersville, MD).
Cell Culture. All cells were maintained in an incubator at 37 degrees C and 5% CO2 with 95% humidity. […]

[1] = second compound 0.003 µM, first compound 0.00949 µM
[2] = second compound 0.003 µM, first compound 0.03 µM
[3] = second compound 0.003 µM, first compound 0.0949 µM
[4] = second compound 0.003 µM, first compound 0.3 µM
[5] = second compound 0.003 µM, first compound 0.949 µM
[6] = second compound 0.003 µM, first compound 3 µM
[7] = second compound 0.00949 µM, first compound 0.00949 µM
[8] = second compound 0.00949 µM, first compound 0.03 µM
[9] = second compound 0.00949 µM, first compound 0.0949 µM
[10] = second compound 0.00949 µM, first compound 0.3 µM
[11] = second compound 0.00949 µM, first compound 0.949 µM
[12] = second compound 0.00949 µM, first compound 3 µM
[13] = second compound 0.03 µM, first compound 0.00949 µM
[14] = second compound 0.03 µM, first compound 0.03 µM
[15] = second compound 0.03 µM, first compound 0.0949 µM
[16] = second compound 0.03 µM, first compound 0.3 µM
[17] = second compound 0.03 µM, first compound 0.949 µM
[18] = second compound 0.03 µM, first compound 3 µM
[19] = second compound 0.0949 µM, first compound 0.00949 µM
[20] = second compound 0.0949 µM, first compound 0.03 µM
[21] = second compound 0.0949 µM, first compound 0.0949 µM
[22] = second compound 0.0949 µM, first compound 0.3 µM
[23] = second compound 0.0949 µM, first compound 0.949 µM
[24] = second compound 0.0949 µM, first compound 3 µM
[25] = second compound 0.3 µM, first compound 0.00949 µM
[26] = second compound 0.3 µM, first compound 0.03 µM
[27] = second compound 0.3 µM, first compound 0.0949 µM
[28] = second compound 0.3 µM, first compound 0.3 µM
[29] = second compound 0.3 µM, first compound 0.949 µM
[30] = second compound 0.3 µM, first compound 3 µM

Structure (SMILES)	IC50 (second compound 0.003 µM)	IC50 (second compound 0.00949 µM)	IC50 (second compound 0.03 µM)	IC50 (second compound 0.0949 µM)	IC50 (second compound 0.3 µM)	viability, T/C [3]	viability, T/C [4]	viability, T/C [5]	viability, T/C [6]	viability, T/C [9]	viability, T/C [10]	viability, T/C [11]	viability, T/C [12]	viability, T/C [15]	viability, T/C [16]	viability, T/C [17]	viability, T/C [18]	viability, T/C [21]	viability, T/C [22]	viability, T/C [23]	also measured
CNCc1ccc(-c2cc(-c3nc(-c4ccc(S(=O)(=O)C(C)C)cc4)cnc3N)on2)cc1 + CC[C@@]1(O)C(=O)OCc2c1cc1n(c2=O)Cc2cc3c(CN(C)C)c(O)ccc3nc2-1	258 nM	139 nM	< 9.49 nM	< 9.49 nM	< 9.49 nM	71.7%	49.4%	15.1%	6.06%	59%	30.7%	12.4%	4.37%	38.1%	27.9%	9.05%	3.26%	13.8%	10.3%	5.27%	viability, T/C [1]: 90.9%; viability, T/C [2]: 83%; viability, T/C [7]: 86.5%; viability, T/C [8]: 81.1%; viability, T/C [13]: 42.3%; viability, T/C [14]: 42.3%; viability, T/C [19]: 8.5%; viability, T/C [20]: 10%; viability, T/C [24]: 2.78%; viability, T/C [25]: 4.36%; viability, T/C [26]: 5.51%; viability, T/C [27]: 5.44%; viability, T/C [28]: 4.99%; viability, T/C [29]: 4.31%; viability, T/C [30]: 3.27%
Cn1ncnc1[C@H]1c2n[nH]c(=O)c3cc(F)cc(c23)N[C@@H]1c1ccc(F)cc1 + CC[C@@]1(O)C(=O)OCc2c1cc1n(c2=O)Cc2cc3c(CN(C)C)c(O)ccc3nc2-1	150 nM	< 9.49 nM	< 9.49 nM	< 9.49 nM	< 9.49 nM	57.9%	44.7%	22.9%	5.42%	28.4%	21%	10.6%	6.84%	7.12%	6.39%	4.2%	3.72%	8.32%	8.9%	4.82%	viability, T/C [1]: 70.4%; viability, T/C [2]: 54.7%; viability, T/C [7]: 43.9%; viability, T/C [8]: 33.5%; viability, T/C [13]: 9.86%; viability, T/C [14]: 8.29%; viability, T/C [19]: 7.58%; viability, T/C [20]: 7.39%; viability, T/C [24]: 3.16%; viability, T/C [25]: 9.11%; viability, T/C [26]: 9.07%; viability, T/C [27]: 8.75%; viability, T/C [28]: 9.02%; viability, T/C [29]: 8.91%; viability, T/C [30]: 7.66%
O=C(c1cc(Cc2n[nH]c(=O)c3ccccc23)ccc1F)N1CCN(C(=O)C2CC2)CC1 + CC[C@@]1(O)C(=O)OCc2c1cc1n(c2=O)Cc2cc3c(CN(C)C)c(O)ccc3nc2-1	12000 nM	2080 nM	< 94.9 nM	< 94.9 nM	< 94.9 nM	79.5%	86.5%	84.7%	72.9%	54.4%	62%	56.3%	46%	11.3%	11.9%	11.7%	8.85%	6.59%	7.45%	7.51%	viability, T/C (second compound 0.003 µM, first compound 9.49 µM): 54.3%; viability, T/C (second compound 0.003 µM, first compound 30 µM): 35.1%; viability, T/C (second compound 0.00949 µM, first compound 9.49 µM): 30.9%; viability, T/C (second compound 0.00949 µM, first compound 30 µM): 13.7%; viability, T/C (second compound 0.03 µM, first compound 9.49 µM): 4.72%; viability, T/C (second compound 0.03 µM, first compound 30 µM): 3.5%; viability, T/C [24]: 7.62%; viability, T/C (second compound 0.0949 µM, first compound 9.49 µM): 6.91%; viability, T/C (second compound 0.0949 µM, first compound 30 µM): 2.51%; viability, T/C [27]: 7.75%; viability, T/C [28]: 8%; viability, T/C [29]: 8.29%; viability, T/C [30]: 8.19%; viability, T/C (second compound 0.3 µM, first compound 9.49 µM): 7.94%; viability, T/C (second compound 0.3 µM, first compound 30 µM): 4.56%
